Experimental data as given in patent publication US20080267932A1, “Lactobacillus Rhamnosus with Body-Fat Reducing Activity and the Foods Containing Them” (priority 2004, published 2008).

Experiments:
[1] = test system: Lactobacillus rhamnosus Strain PL60; experiment: Antibiotic resistance (diameter of growth inhibition); assay type: cell-based; details: antibiotic against Lactobacillus rhamnosus Strain PL60
CLA production from LA = details: reported strains, for comparison; cited from earlier work
overweight people = details: cited from earlier work

## CC1(C)S[C@@H]2[C@H](NC(=O)[C@H](N)c3ccccc3)C(=O)N2[C@H]1C(=O)O [Ampicillin]
[1]
  Diameter(mm) of growth inhibition: 21 mm

## CC1(C)S[C@@H]2[C@H](NC(=O)C(C(=O)O)c3ccccc3)C(=O)N2[C@H]1C(=O)O (stereo partly shown) [Carbenicillin]
[1]
  Diameter(mm) of growth inhibition: 25 mm

## CCN1CCN(C(=O)N[C@@H](C(=O)N[C@@H]2C(=O)N3C(C(=O)O)=C(CSc4nnnn4C)CS[C@H]23)c2ccc(O)cc2)C(=O)C1=O [Cefoperazone]
[1]
  Diameter(mm) of growth inhibition: 22 mm

## CC(=O)OCC1=C(C(=O)O)N2C(=O)[C@@H](NC(=O)Cc3cccs3)[C@H]2SC1 [Cephalothin]
[1]
  Diameter(mm) of growth inhibition: 20 mm

## O=C(N[C@H](CO)[C@H](O)c1ccc([N+](=O)[O-])cc1)C(Cl)Cl [Chloramphenicol]
[1]
  Diameter(mm) of growth inhibition: 24 mm

## CCC[C@@H]1C[C@@H](C(=O)N[C@@H]([C@H]2O[C@H](SC)[C@H](O)[C@@H](O)[C@H]2O)[C@H](C)Cl)N(C)C1 [Clindamycin]
[1]
  Diameter(mm) of growth inhibition: 26 mm

## CC[C@H]1OC(=O)[C@H](C)[C@@H](O[C@H]2C[C@@](C)(OC)[C@@H](O)[C@H](C)O2)[C@H](C)[C@@H](O[C@@H]2O[C@H](C)C[C@H](N(C)C)[C@H]2O)[C@](C)(O)C[C@@H](C)C(=O)[C@H](C)[C@@H](O)[C@]1(C)O [Erythromycin]
[1]
  Diameter(mm) of growth inhibition: 28 mm

## Cc1onc(-c2ccccc2)c1C(=O)N[C@@H]1C(=O)N2[C@@H]1SC(C)(C)[C@@H]2C(=O)O [Oxacillin]
[1]
  Diameter(mm) of growth inhibition: 8 mm

## CCN1CCN(C(=O)N[C@@H](C(=O)N[C@@H]2C(=O)N3[C@@H]2SC(C)(C)[C@@H]3C(=O)O)c2ccccc2)C(=O)C1=O [Piperacilin]
[1]
  Diameter(mm) of growth inhibition: 30 mm

## CO[C@H]1/C=C/O[C@@]2(C)Oc3c(C)c(O)c4c(O)c(c(/C=N/N5CCN(C)CC5)c(O)c4c3C2=O)NC(=O)/C(C)=C\C=C\[C@H](C)[C@H](O)[C@@H](C)[C@@H](O)[C@@H](C)[C@H](OC(C)=O)[C@@H]1C [Rifampin]
[1]
  Diameter(mm) of growth inhibition: 24 mm

## [H]/N=C(/N)N[C@H]1[C@H](O)[C@@H](O)[C@H](O[C@@H]2O[C@@H](C)[C@](O)(C=O)[C@H]2O[C@@H]2O[C@@H](CO)[C@H](O)[C@@H](O)[C@@H]2NC)[C@@H](N/C(N)=N\[H])[C@@H]1O [Streptomycin]
[1]
  Diameter(mm) of growth inhibition: 11 mm

## CN(C)[C@@H]1C(O)=C(C(N)=O)C(=O)[C@@]2(O)C(O)=C3C(=O)c4c(O)cccc4[C@@](C)(O)[C@H]3C[C@@H]12 [Tetracycline]
[1]
  Diameter(mm) of growth inhibition: 29 mm

## CN[C@H](CC(C)C)C(=O)N[C@H]1C(=O)N[C@@H](CC(N)=O)C(=O)N[C@H]2C(=O)N[C@H]3C(=O)N[C@H](C(=O)N[C@H](C(=O)O)c4cc(O)cc(O)c4-c4cc3ccc4O)[C@H](O)c3ccc(c(Cl)c3)Oc3cc2cc(c3O[C@@H]2O[C@H](CO)[C@@H](O)[C@H](O)[C@H]2O[C@H]2C[C@](C)(N)[C@H](O)[C@H](C)O2)Oc2ccc(cc2Cl)[C@H]1O [Vancomycin]
[1]
  Diameter(mm) of growth inhibition: 6 mm

## Gentamicin
[1]
  Diameter(mm) of growth inhibition: 10 mm

## Lactobacillus reuteri
CLA production from LA
  yield of t10c12 CLA: 30 ppm

## Penicillin
[1]
  Diameter(mm) of growth inhibition: 25 mm

## Trimethpprime/sulfamethoxasole
[1]
  Diameter(mm) of growth inhibition: 6 mm

## conjugated linoleic acid [CLA]
Overweight people; 180 overweight people, administered for one year
  weight loss: 4-10%
Overweight people; in vivo
  side effects: without side effects
